# Test results: patent US20060014938A1, “Stable aqueous colloidal lanthanide oxides” (priority 2004, published 2006)
# Assays:
# [1] = test system: pig mesenchymal stem cells (MSC); experiment: Cell viability test; format: cell-based
# Protocol: FIG. 1 is a set of photomicrographs showing results from a cell viability test using Pig MSCs.
# In all experiments colloid was incubated with cells in growth medium for 12 hours (at a concentration of 1 mg Eu/mL) which was then washed away.
# [2] = Size and aqueous stability of colloid after crosslinking or surface modification; format: physicochemical
# Protocol: The dextran covered lanthanide colloid was prepared according to Example 6 except that lanthanum chloride was substituted for samarium chloride. In a fume hood, to 40 mL of colloid was added 100 mL of 5M NaOH, 40 mL distilled water and 40 mL epichlorohydrin. The mixture was incubated at room temperature for about 24 hours with shaking to promote interaction of the organic phase (epichlorohydrin) and aqueous phase which includes the dextran covered colloid. Epichlorohydrin was removed by placing the colloid in a dialysis bag and dialyzing against 20 changes of distilled water of 20 liters each. After dialysis, the product was filtered through a 0.2 micron filter and stored at 4° C. The size and aqueous stability of the colloid suspension were unaffected by this treatment.
# The reduced dextran covered colloid was prepared essentially according to Example 10 except that lutetium chloride was substituted for gadolinium chloride. In a fume hood, to 40 mL of colloid was added 100 mL of 5M NaOH, 40 mL of distilled water and 40 mL of epichlorohydrin. The mixture was incubated at room temperature for about 24 hours with shaking to promote interaction of the organic phase (epichlorohydrin) and aqueous phase which includes the dextran covered colloid. Epichlorohydrin was removed by placing the colloid in a dialysis bag and dialyzing against 5 changes of distilled water of 4 liters each. […]
# mice = conditions: cited from earlier work
# [3] = MRI of tubes using a T1 pulse sequence; conditions: 1.0 and 0.1 nM Gd, same molar concentrations
# Protocol: Colloidal gadolinium Oxide prepared according to Example 9, and Gadolinium DTPA, each at a concentration of each of 1.0 and 0.1 nM Gd, were added to a volume of 1 mL in a 2 mL screw cap plastic tube, and were subjected to MRI using a T1 pulse sequence.
# Row 3 is water, a negative control.
# [4] = Description: Table 1 summarizes characteristics of gadolinium DTPA (a previously described MRI contrast agent) and of compositions that are gadolinium oxide complexed with reduced dextran as provided herein, comparing characteristics of these to an ideal vascular contrast agent.
molecule,measurement,setting,value
C[CH2][Hg][S]c1ccccc1C(=O)[O-].[Na+] [thimerasol],state of cells (FIG. 1 Panel C),"[1]; added to growth medium, after 24 hours",severe deterioration
same,time to cell death,[1]; positive control,less than 24 hours
Gadolinium Oxide Colloid Modified with Biotin [Example 22],size and aqueous stability of the colloid suspension after the treatment,[2],unaffected
[Cl][Gd]([Cl])[Cl] [gadolinium chloride],most common lesions after injection,mice,"mineral emboli in capillaries, accumulation of mineral in the mononuclear phagocytic system, hepatocellular necrosis, and lymphoid depletion, necrosis and mineralisation in the spleen"
O=C([O-])CN(CCN(CC(=O)[O-])CC(=O)[O-])CCN(CC(=O)[O-])CC(=O)[O-].[Gd+3] [Gadolinium DTPA],potency as contrast agent (T1 weighted image),[3],equally potent
same,Autoclavable without excipients,[4],Yes
same,Non toxic at vast excess,[4],Yes
